# Measurements as given in patent US9096832B2, “Differentiation of human embryonic stem cells” (LifeScan, Inc., priority 2007, dated 2015).
# Test system: H9 embryonic stem cells
# Assay: Microarray analysis of definitive endoderm stage cells on […] or MEFs +/- Wnt-3a (Table VI)
# Type: cell-based, human
# Settings: log format
# [1] = DE treatment in low serum on MATRIGEL
# [2] = DE treatment in low serum on MEFS
# Method: Controls for each group included cells plated on [sequence]—coated dishes and cultured in MEF-conditioned medium or cells plated on MEFs and cultured in ES medium. All groups contained three biological replicates and each biological replicate was repeated on two separate gene chips.
# Sample preparation, hybridization, and image analysis were performed according to the Affymetrix Human Genome U133 Plus 2.0 Array. Following normalization and a log transformation, data analysis was performed using OmniViz® software (MA) and [sequence] […] Significant differences in gene expression between the samples were evaluated using analysis of variance and an F-test with adjusted P-value (Benjamini and Hochberg correction) of less-than or equal to 0.05. Only genes with a present call in at least one group were included in the analysis.
substance,measurement,setting,value
"Activin A: activin A (a member of the TGFβ superfamily), R&D Systems; 'w/o wnt' in Table VII = 100 ng/ml Activin A without Wnt3a",mean normalized intensity: DKFZP566K1924 protein,[1],2.882
same,"mean normalized intensity: ESTs, Moderately similar to ALU2_HUMAN ALU SUBFAMILY SB SEQUENCE CONTAMINATION WARNING ENTRY (H. sapiens)",[1],4.241
same,mean normalized intensity: H. sapiens mRNA for B-HLH DNA binding protein.,[1],5.43
same,"mean normalized intensity: Homo sapiens BCL2-interacting killer (apoptosis-inducing) (BIK), mRNA.",[1],4.3
same,"mean normalized intensity: Homo sapiens Charot-Leyden crystal protein (CLC), mRNA.",[1],3.301
same,"mean normalized intensity: Homo sapiens HES-related repressor protein 1 HERP1 mRNA, complete cds.",[1],2.806
same,"mean normalized intensity: Homo sapiens HSPC156 protein (HSPC156), mRNA.",[1],0.7862
same,"mean normalized intensity: Homo sapiens KIAA0469 gene product (KIAA0469), mRNA.",[1],4.031
same,"mean normalized intensity: Homo sapiens PNAS-123 mRNA, complete cds",[1],1.597
same,"mean normalized intensity: Homo sapiens Wilms tumor 1 (WT1), transcript variant D, mRNA.",[1],2.405
same,"mean normalized intensity: Homo sapiens cDNA FLJ11398 fis, clone HEMBA1000637.",[1],2.5268
same,"mean normalized intensity: Homo sapiens cDNA: FLJ22547 fis, clone HSI00356",[1],4.294
same,"mean normalized intensity: Homo sapiens cadherin 6, type 2, K-cadherin (fetal kidney) (CDH6), mRNA.",[1],0.8248
same,"mean normalized intensity: Homo sapiens chorionic somatomammotropin hormone 2 (CSH2), transcript variant 1, mRNA.",[1],1.124
same,"mean normalized intensity: Homo sapiens chorionic somatomammotropin hormone 2 (CSH2), transcript variant 4, mRNA.",[1],0.8122
same,"mean normalized intensity: Homo sapiens galanin receptor 1 (GALR1), mRNA.",[1],2.507
same,"mean normalized intensity: Homo sapiens growth hormone 2 (GH2), transcript variant 2, mRNA.",[1],0.9226
same,"mean normalized intensity: Homo sapiens hypothetical protein FLJ20075 (FLJ20075), mRNA.",[1],−0.3592
same,"mean normalized intensity: Homo sapiens mRNA for SCCA2b, complete cds.",[1],3.329
same,mean normalized intensity: Homo sapiens mRNA; cDNA DKFZp586P1124 (from clone DKFZp586P1124),[1],0.4856
same,"mean normalized intensity: Homo sapiens methyl-CpG binding protein MBD2 (MBD2) mRNA, complete cds.",[1],0.4906
same,"mean normalized intensity: Homo sapiens tachykinin, precursor 1 (TAC1), transcript variant beta, mRNA.",[1],2.773
same,"mean normalized intensity: Homo sapiens testis expressed sequence 14 (TEX14), mRNA.",[1],3.512
same,"mean normalized intensity: Homo sapiens, Similar to LIM homeobox protein 8, clone IMAGE: 4839343, mRNA.",[1],−0.06288
same,"mean normalized intensity: Homo sapiens, Similar to cadherin 6, type 2, K-cadherin (fetal kidney), clone MGC: 1470, mRNA, complete cds.",[1],2.547
same,"mean normalized intensity: Homo sapiens, Similar to hypothetical protein FLJ10058, clone MGC: 34305 IMAGE: 5167647, mRNA, complete cds.",[1],1.698
same,"mean normalized intensity: Homo sapiens, Similar to hypothetical protein FLJ32001, clone MGC: 39559 IMAGE: 4828136, mRNA, complete cds.",[1],0.5207
same,"mean normalized intensity: Homo sapiens, clone IMAGE: 4067166, mRNA",[1],0.1959
same,"mean normalized intensity: Homo sapiens, clone IMAGE: 4828836, mRNA.",[1],0.9729
same,"mean normalized intensity: Homo sapiens, serine (or cysteine) proteinase inhibitor, clade B (ovalbumin), member 3, clone MGC: 12244, mRNA, complete cds.",[1],1.969
same,mean normalized intensity: Human mRNA upregulated during camptothecin-induced apoptosis of U937 cells.,[1],0.4945
same,"mean normalized intensity: Human platelet-derived growth factor alpha-receptor (PDGFRA) mRNA, exons 13-16",[1],2.445
same,mean normalized intensity: KIAA1151 protein,[1],0.6425
same,mean normalized intensity: caldesmon 1,[1],7.092
same,"mean normalized intensity: nuclear receptor subfamily 1, group I, member 3",[1],1.779
same,mean normalized intensity: ESTs,"DE treatment in low serum on MATRIGEL, gene line r2006",1.5857
same,mean normalized intensity: ESTs,"DE treatment in low serum on MATRIGEL, gene line r2025",1.531
same,mean normalized intensity: ESTs,"DE treatment in low serum on MATRIGEL, gene line r2032",0.1336
same,mean normalized intensity: paternally expressed 3,"DE treatment in low serum on MATRIGEL, gene line r2033",2.876
same,mean normalized intensity: ESTs,"DE treatment in low serum on MATRIGEL, gene line r2038",3.262
same,mean normalized intensity: paternally expressed 3,"DE treatment in low serum on MATRIGEL, gene line r2093",2.874
same,mean normalized intensity: ESTs,"DE treatment in low serum on MATRIGEL, gene line r2134",−1.3795
same,mean normalized intensity: ESTs,"DE treatment in low serum on MATRIGEL, gene line r2148",4.454
same,mean normalized intensity: DKFZP566K1924 protein,[2],1.391
same,"mean normalized intensity: ESTs, Moderately similar to ALU2_HUMAN ALU SUBFAMILY SB SEQUENCE CONTAMINATION WARNING ENTRY (H. sapiens)",[2],3.874
same,mean normalized intensity: H. sapiens mRNA for B-HLH DNA binding protein.,[2],3.451
same,"mean normalized intensity: Homo sapiens BCL2-interacting killer (apoptosis-inducing) (BIK), mRNA.",[2],3.562
same,"mean normalized intensity: Homo sapiens Charot-Leyden crystal protein (CLC), mRNA.",[2],2.1096
same,"mean normalized intensity: Homo sapiens HES-related repressor protein 1 HERP1 mRNA, complete cds.",[2],2.406
same,"mean normalized intensity: Homo sapiens HSPC156 protein (HSPC156), mRNA.",[2],1.296
same,"mean normalized intensity: Homo sapiens KIAA0469 gene product (KIAA0469), mRNA.",[2],2.565
same,"mean normalized intensity: Homo sapiens PNAS-123 mRNA, complete cds",[2],1.847
same,"mean normalized intensity: Homo sapiens Wilms tumor 1 (WT1), transcript variant D, mRNA.",[2],−2.435
same,"mean normalized intensity: Homo sapiens cDNA FLJ11398 fis, clone HEMBA1000637.",[2],1.849
same,"mean normalized intensity: Homo sapiens cDNA: FLJ22547 fis, clone HSI00356",[2],2.095
same,"mean normalized intensity: Homo sapiens cadherin 6, type 2, K-cadherin (fetal kidney) (CDH6), mRNA.",[2],−0.8763
same,"mean normalized intensity: Homo sapiens chorionic somatomammotropin hormone 2 (CSH2), transcript variant 1, mRNA.",[2],2.616
same,"mean normalized intensity: Homo sapiens chorionic somatomammotropin hormone 2 (CSH2), transcript variant 4, mRNA.",[2],2.218
same,"mean normalized intensity: Homo sapiens galanin receptor 1 (GALR1), mRNA.",[2],−0.338
same,"mean normalized intensity: Homo sapiens growth hormone 2 (GH2), transcript variant 2, mRNA.",[2],1.4679
same,"mean normalized intensity: Homo sapiens hypothetical protein FLJ20075 (FLJ20075), mRNA.",[2],−0.06528
same,"mean normalized intensity: Homo sapiens mRNA for SCCA2b, complete cds.",[2],0.568
same,mean normalized intensity: Homo sapiens mRNA; cDNA DKFZp586P1124 (from clone DKFZp586P1124),[2],−3.094
same,"mean normalized intensity: Homo sapiens methyl-CpG binding protein MBD2 (MBD2) mRNA, complete cds.",[2],−1.702
same,"mean normalized intensity: Homo sapiens tachykinin, precursor 1 (TAC1), transcript variant beta, mRNA.",[2],1.483
same,"mean normalized intensity: Homo sapiens testis expressed sequence 14 (TEX14), mRNA.",[2],−1.3824
same,"mean normalized intensity: Homo sapiens, Similar to LIM homeobox protein 8, clone IMAGE: 4839343, mRNA.",[2],−1.11
same,"mean normalized intensity: Homo sapiens, Similar to cadherin 6, type 2, K-cadherin (fetal kidney), clone MGC: 1470, mRNA, complete cds.",[2],2.134
same,"mean normalized intensity: Homo sapiens, Similar to hypothetical protein FLJ10058, clone MGC: 34305 IMAGE: 5167647, mRNA, complete cds.",[2],0.2156
same,"mean normalized intensity: Homo sapiens, Similar to hypothetical protein FLJ32001, clone MGC: 39559 IMAGE: 4828136, mRNA, complete cds.",[2],1.269
same,"mean normalized intensity: Homo sapiens, clone IMAGE: 4067166, mRNA",[2],0.277
same,"mean normalized intensity: Homo sapiens, clone IMAGE: 4828836, mRNA.",[2],−1.484
same,"mean normalized intensity: Homo sapiens, serine (or cysteine) proteinase inhibitor, clade B (ovalbumin), member 3, clone MGC: 12244, mRNA, complete cds.",[2],−1.566
same,mean normalized intensity: Human mRNA upregulated during camptothecin-induced apoptosis of U937 cells.,[2],−0.1892
same,"mean normalized intensity: Human platelet-derived growth factor alpha-receptor (PDGFRA) mRNA, exons 13-16",[2],2.905
same,mean normalized intensity: KIAA1151 protein,[2],1.009
same,mean normalized intensity: caldesmon 1,[2],5.634
same,"mean normalized intensity: nuclear receptor subfamily 1, group I, member 3",[2],−0.1968
same,mean normalized intensity: ESTs,"DE treatment in low serum on MEFS, gene line r2006",−1.3
same,mean normalized intensity: ESTs,"DE treatment in low serum on MEFS, gene line r2025",1.373
same,mean normalized intensity: ESTs,"DE treatment in low serum on MEFS, gene line r2032",−1.566
same,mean normalized intensity: paternally expressed 3,"DE treatment in low serum on MEFS, gene line r2033",−0.0118
same,mean normalized intensity: ESTs,"DE treatment in low serum on MEFS, gene line r2038",1.5682
same,mean normalized intensity: paternally expressed 3,"DE treatment in low serum on MEFS, gene line r2093",−3.492
